From PubChem BioAssay (NCI)
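Cultured in 96-well plates, cells were exposed to test compound for 48 hours across five concentrations. Here, GI50 denotes the concentration required for 50% inhibition of growth. TGI: total growth inhibition.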

What was measured:
Test in all cases: NCI anticancer screen, dose series, 48 h
MCF7 breast = tested on: MCF7 breast
KM12 colon = tested on: KM12 colon
NCI-H23 lung = tested on: NCI-H23 lung
SR leukemia = tested on: SR leukemia
HS 578T breast = tested on: HS 578T breast
HCT-15 colon = tested on: HCT-15 colon
SK-MEL-5 melanoma = tested on: SK-MEL-5 melanoma
M14 melanoma = tested on: M14 melanoma
MDA-MB-231 breast = tested on: MDA-MB-231 breast
HT29 colon = tested on: HT29 colon
NCI-H460 lung = tested on: NCI-H460 lung
SK-MEL-2 melanoma = tested on: SK-MEL-2 melanoma
NCI-H226 lung = tested on: NCI-H226 lung
OVCAR-4 ovarian = tested on: OVCAR-4 ovarian
HL-60(TB) leukemia = tested on: HL-60(TB) leukemia
U251 CNS = tested on: U251 CNS
SF-295 CNS = tested on: SF-295 CNS
A549 NSCLC = tested on: A549 NSCLC
RXF 393 renal = tested on: RXF 393 renal
OVCAR-8 ovarian = tested on: OVCAR-8 ovarian
DU-145 prostate = tested on: DU-145 prostate
HOP-92 NSCLC = tested on: HOP-92 NSCLC
OVCAR-3 ovarian = tested on: OVCAR-3 ovarian
SF-268 CNS = tested on: SF-268 CNS
SK-OV-3 ovarian = tested on: SK-OV-3 ovarian
SF-539 CNS = tested on: SF-539 CNS
COLO 205 colon = tested on: COLO 205 colon
UACC-62 melanoma = tested on: UACC-62 melanoma
UO-31 renal = tested on: UO-31 renal
NCI/ADR-RES ovarian = tested on: NCI/ADR-RES ovarian
NCI-H522 lung = tested on: NCI-H522 lung
SN12C renal = tested on: SN12C renal
A498 renal = tested on: A498 renal
HOP-62 NSCLC = tested on: HOP-62 NSCLC
MDA-MB-435 = tested on: MDA-MB-435
ACHN renal = tested on: ACHN renal
PC-3 prostate = tested on: PC-3 prostate
UACC-257 melanoma = tested on: UACC-257 melanoma
MOLT-4 leukemia = tested on: MOLT-4 leukemia
TK-10 renal = tested on: TK-10 renal
786-0 renal = tested on: 786-0 renal
SW-620 colon = tested on: SW-620 colon
IGROV1 ovarian = tested on: IGROV1 ovarian
HCT-116 colon = tested on: HCT-116 colon
HCC-2998 colon = tested on: HCC-2998 colon
SNB-75 CNS = tested on: SNB-75 CNS
MALME-3M melanoma = tested on: MALME-3M melanoma
CCRF-CEM leukemia = tested on: CCRF-CEM leukemia
BT-549 breast = tested on: BT-549 breast
K-562 leukemia = tested on: K-562 leukemia
SNB-19 CNS = tested on: SNB-19 CNS
CAKI-1 renal = tested on: CAKI-1 renal
OVCAR-5 ovarian = tested on: OVCAR-5 ovarian
LOX IMVI melanoma = tested on: LOX IMVI melanoma
T-47D breast = tested on: T-47D breast
SK-MEL-28 melanoma = tested on: SK-MEL-28 melanoma
RPMI-8226 leukemia = tested on: RPMI-8226 leukemia

## CC(C)(O)CCc1cccc(C(=O)c2cnn(-c3ccc(F)cc3)c2N)c1
MCF7 breast
  GI50: > 25 µM
  TGI: > 25 µM
KM12 colon
  GI50: > 25 µM
  TGI: > 25 µM
NCI-H23 lung
  GI50: > 25 µM
  TGI: > 25 µM
SR leukemia
  GI50: > 25 µM
  TGI: > 25 µM
HS 578T breast
  GI50: > 25 µM
  TGI: > 25 µM
HCT-15 colon
  GI50: > 25 µM
  TGI: > 25 µM
SK-MEL-5 melanoma
  GI50: 13.5 µM
  TGI: > 25 µM
M14 melanoma
  GI50: > 25 µM
  TGI: > 25 µM
MDA-MB-231 breast
  GI50: > 25 µM
  TGI: > 25 µM
HT29 colon
  GI50: > 25 µM
  TGI: > 25 µM
NCI-H460 lung
  GI50: > 25 µM
  TGI: > 25 µM
SK-MEL-2 melanoma
  GI50: > 25 µM
  TGI: > 25 µM
NCI-H226 lung
  GI50: > 19.7 µM
  TGI: > 25 µM
OVCAR-4 ovarian
  GI50: > 23.3 µM
  TGI: > 25 µM
HL-60(TB) leukemia
  GI50: > 25 µM
  TGI: > 25 µM
U251 CNS
  GI50: > 25 µM
  TGI: > 25 µM
SF-295 CNS
  GI50: > 25 µM
  TGI: > 25 µM
A549 NSCLC
  GI50: > 25 µM
  TGI: > 25 µM
RXF 393 renal
  GI50: > 25 µM
  TGI: > 25 µM
OVCAR-8 ovarian
  GI50: > 25 µM
  TGI: > 25 µM
DU-145 prostate
  GI50: > 25 µM
  TGI: > 25 µM
HOP-92 NSCLC
  GI50: 8.7 µM
  TGI: > 25 µM
OVCAR-3 ovarian
  GI50: > 25 µM
  TGI: > 25 µM
SF-268 CNS
  GI50: > 25 µM
  TGI: > 25 µM
SK-OV-3 ovarian
  GI50: > 25 µM
  TGI: > 25 µM
SF-539 CNS
  GI50: > 25 µM
  TGI: > 25 µM
COLO 205 colon
  GI50: > 25 µM
  TGI: > 25 µM
UACC-62 melanoma
  GI50: > 25 µM
  TGI: > 25 µM
UO-31 renal
  GI50: > 25 µM
  TGI: > 25 µM
NCI/ADR-RES ovarian
  GI50: > 21.9 µM
  TGI: > 25 µM
NCI-H522 lung
  GI50: > 25 µM
  TGI: > 25 µM
SN12C renal
  GI50: > 25 µM
  TGI: > 25 µM
A498 renal
  GI50: > 18.4 µM
  TGI: > 25 µM
HOP-62 NSCLC
  GI50: > 25 µM
  TGI: > 25 µM
MDA-MB-435
  GI50: > 25 µM
  TGI: > 25 µM
ACHN renal
  GI50: > 25 µM
  TGI: > 25 µM
PC-3 prostate
  GI50: > 25 µM
  TGI: > 25 µM
UACC-257 melanoma
  GI50: > 25 µM
  TGI: > 25 µM
MOLT-4 leukemia
  GI50: > 25 µM
  TGI: > 25 µM
TK-10 renal
  GI50: > 25 µM
  TGI: > 25 µM
786-0 renal
  GI50: > 25 µM
  TGI: > 25 µM
SW-620 colon
  GI50: > 25 µM
  TGI: > 25 µM
IGROV1 ovarian
  GI50: > 25 µM
  TGI: > 25 µM
HCT-116 colon
  GI50: > 25 µM
  TGI: > 25 µM
HCC-2998 colon
  GI50: > 25 µM
  TGI: > 25 µM
SNB-75 CNS
  GI50: > 25 µM
  TGI: > 25 µM
MALME-3M melanoma
  GI50: > 25 µM
  TGI: > 25 µM
CCRF-CEM leukemia
  GI50: > 25 µM
  TGI: > 25 µM
BT-549 breast
  GI50: > 25 µM
  TGI: > 25 µM
K-562 leukemia
  GI50: > 25 µM
  TGI: > 25 µM
SNB-19 CNS
  GI50: > 25 µM
  TGI: > 25 µM
CAKI-1 renal
  GI50: > 25 µM
  TGI: > 25 µM
OVCAR-5 ovarian
  GI50: > 25 µM
  TGI: > 25 µM
LOX IMVI melanoma
  GI50: > 25 µM
  TGI: > 25 µM
T-47D breast
  GI50: 8.17 µM
  TGI: > 25 µM
SK-MEL-28 melanoma
  GI50: > 25 µM
  TGI: > 25 µM
RPMI-8226 leukemia
  GI50: > 25 µM
  TGI: > 25 µM
